Reference: US6617124B1, “7-alkoxycoumarins as cytochrome p450 substrates” (SmithKline Beecham p.l.c., priority 1998, dated 2003)

melting point [°C] | SMILES
109 to 109.5 | CNCc1cc(=O)oc2cc(OC)ccc12
97 | COc1ccc2c(CN(C)C)cc(=O)oc2c1
